Consider seven compounds from patent publication US4772586A, “Novel derivatives of arginine vasopressin antagonists” (Medical College of Ohio, priority 1986, dated 1988).

One test has as its system vasopressor response. The experiment in a line: Vasopressor (VP) agonistic activity. Format: in vivo. The following applies: Table 1; vasopressor agonism; ^+ = weak partial agonistic activity not clearly related to dose.
Test [1] concerns ethanol-anesthesized water-loaded rats. The experiment in a line: Activity as antidiuretic agonists, intravenous injection. To be noted: for Agonistic Activities ADH: Table 1, antidiuretic agonism, i.v., ^+ = weak partial agonistic activity not clearly related to dose. It counts as in vivo. The method, then:
Activity as antidiuretic agonists was determined by intravenous injection of the compounds being evaluated in ethanol-anesthesized water-loaded rats in accordance with Sawyer, Endocrinology, vol. 63 (1958) at 694. Antagonism of the antidiuretic response to subsequent injections of arginine vasopressin was tested by the method of Sawyer et al., Science, vol. 212 (1981) at 49.

Test [2] has as its system vasopressor response to arginine vasopressin. The experiment in a line: Antagonism to the vasopressor response (Anti-VP). It counts as in vivo. The following applies: for Anti-VP pA2 / Anti-VP Potency pA2: estimated in vivo pA2. Put shortly: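 In vivo antagonism of arginine vasopressin pressor response per Dyckes et al. Effective dose (nmol/kg) is the antagonist dose making the response to 2x agonist units, injected 20 min later, equal that to 1x units. pA2 is the negative log of effective dose divided by 67 ml/kg distribution volume.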

Test [3] relates to antidiuretic response to arginine vasopressin. Put plainly: Antagonism of the antidiuretic response to arginine vasopressin (Anti-ADH). Format: in vivo, rats. To be noted: for Anti-ADH Potency pA2: estimated in vivo pA2. Put shortly:
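Compounds were given intravenously to ethanol-anesthetized, water-loaded rats, followed by arginine vasopressin challenge. Effective dose (nmol/kg) is the antagonist dose that reduces the response to 2x units of agonist, given 20 min later, to the response to 1x units. pA2 is the negative log of effective dose divided by an estimated 67 ml/kg distribution volume.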

*1 amine or outer side, *2 acyl side, *3 side chain or, on linkers, in order; H or OH if unused. Where a SMILES comes first, the peptide text is derived from it. Bridges are numbered along the chain shown (N, C = ends). Where no end group is shown, it is not given here. [ ]: non-standard residue; d: D form. X1 = O=C(CC1(S[*:2])CCCCC1)[*:1]; βAla = NCCC(=O)O

In the case of “9-desglycinamide-arginine vasopressin (CYFQNCPR; disulfide 1-6 (inferred); ends not checked; UniProt P01185 20-27, looked up, fragment) [desGly^9 (NH2)AVP]”, in the test with vasopressor response, the “Agonistic Activities VP” value is on record as ~ 0.02 units/mg. For the same compound, in test [1], the “Agonistic Activities ADH” value came to 5.6 ± 1.1 units/mg.

For `NC(=O)CC[C@@H]1NC(=O)[C@H](Cc2ccccc2)NC(=O)[C@H](Cc2ccc(O)cc2)NC(=O)[C@@H](N)CSSC[C@@H](C(=O)N2CCC[C@H]2C(=O)N[C@@H](CCCN=C(N)N)C(=O)NCC(N)=O)NC(=O)[C@H](CC(N)=O)NC1=O` [AVP, arginine vasopressin], in the test with vasopressor response, the “Agonistic Activities VP” value amounted to 382 ± 5 units/mg. The “Agonistic Activities ADH” value in test [1] is listed as 330 ± 23 units/mg.

Turning to “deamido-arginine vasopressin (CYFQNCPRG-OH; disulfide 1-6 (inferred); ends not checked; UniProt P01185 20-28, looked up) [AVP-acid, purchased from Bachem, Inc; alternatively, vasopressinoic acid]”, in the test with vasopressor response, the “Agonistic Activities VP” value is on record as under 0.03 units/mg. Also, the “Agonistic Activities ADH” value in test [1] was found to be 4.7 ± 0.6 units/mg. Also, the “antidiuretic character in vivo” value in test [1] (Table 1 footnote b) is recorded as “antidiuretic agonist in vivo”.

In the case of “9-desglycine-argoinine vasopressin (CYFQNCPR; disulfide 1-6 (inferred); ends not checked; UniProt P01185 20-27, looked up, fragment) [desGly^9 AVP]”, the “Anti-VP ED” value in test [2] (Table 1, effective dose) is 68 ± 16 nmol/kg. Besides, the “Anti-VP pA2” value in test [2] (Table 1) is reported as 6.09 ± 0.10. For the same compound, the “Agonistic Activities VP” value in the test with vasopressor response was under 0.05 units/mg. Also, in test [1], the “Agonistic Activities ADH” value amounted to 164 ± 4 units/mg.

In the case of `CCOc1ccc(C[C@H]2NC(=O)CC3(CCCCC3)SSC[C@@H](C(=O)N3CCC[C@H]3C(=O)N[C@@H](CCCNC(=N)N)C(=O)NCCC(=O)NC)NC(=O)[C@H](CC(N)=O)NC(=O)[C@H](C(C)C)NC(=O)[C@H](Cc3ccccc3)NC2=O)cc1` [1-(beta-mercapto-beta,beta-cyclopentamethyleneproprionic acid), 2-D-(O-ethyl)tyrosine, 4-valine, 9-beta-alanine-N-methylamide]-arginine vasopressin] ([dY](Et)FVNCPR[βAla]-NHMe; linker N-5 via X1), in test [2] (Table 4, ^+ = mixed), the “Anti-VP Potency pA2” value is given as 7.77 ± 0.05. Also, the “Anti-ADH Potency pA2” value in test [3] (Table 4) was 7.61 ± 0.02.

Consider `CC[C@H](C)[C@@H]1NC(=O)[C@H](Cc2ccccc2)NC(=O)[C@@H](Cc2ccccc2)NC(=O)CC2(CCCCC2)SSC[C@@H](C(=O)N2CCC[C@H]2C(=O)N[C@@H](CCCNC(=N)N)C(=O)NCC(=O)O)NC(=O)[C@H](CC(N)=O)NC1=O` [d(CH2)5 [D-Phe^2,Ile^ 4]AVP acid, [1-(beta-mercapto-beta,beta-cyclopentamethylenepropionic acid), 2-D-phenylalanine, 4-isoleucine, 9-glycine]-arginine vasopressin] ([dF]FINCPRG-OH; linker N-5 via X1), for which, in test [2] (Table 1), the “Anti-VP pA2” value is given as 6.94 ± 0.08. Besides, the “Anti-ADH pA2” value in test [3] (Table 1, estimated in vivo pA2 = negative log of effective dose divided by volume of distribution (67 ml/kg)) is 7.11 ± 0.11.

Take `CC[C@H](C)[C@H](NC(=O)[C@H](CCCNC(=N)N)NC(=O)[C@@H]1CCCN1C(=O)[C@@H]1CSSC2(CCCCC2)CC(=O)N[C@H](Cc2ccccc2)C(=O)N[C@@H](Cc2ccccc2)C(=O)N[C@@H]([C@@H](C)CC)C(=O)N[C@@H](CC(N)=O)C(=O)N1)C(N)=O` [Ile(NH2), [1-(beta-mercapto-beta,beta-cyclopentamethylenepropionic acid), 2-D-phenylalanine, 4-isoleucine, 9-isoleucinamide]-arginine vasopressin] ([dF]FINCPRI-NH2; linker N-5 via X1): the “Anti-VP Potency pA2” value in test [2] (Table 2) is recorded as 7.04 ± 0.05. Moreover, the “Anti-ADH Potency pA2” value in test [3] (Table 2) is on record as 7.58 ± 0.11.
